Measured values reported in the supplement of paper PMC10307832.

Tests used:
Experiment in all cases: relative viability (nuclei count vs DMSO), 5 days (fraction); higher = more cells survive
4EGI-1 + AZD7762 = compound: O=C(O)C(Cc1ccccc1[N+](=O)[O-])=NNc1nc(-c2ccc(Cl)c(Cl)c2)cs1 (mixture of isomers) [4EGI-1] + NC(=O)Nc1cc(-c2cccc(F)c2)sc1C(=O)N[C@H]1CCCNC1 [AZD7762] (partner 0.2 µM)
How it was run: (§1)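 Nuclei were stained with Hoechst during a one-step fixation (final 0.05% Triton X-100, 1% formaldehyde, 1 ug/ml Hoechst) carried out 5 days after dosing, then counted on 4× images. The cells, lung cancer lines in 1536-well plates, had been dosed by pin tool the day after seeding with one drug alone or a fixed anchor-drug dose plus five library-drug doses (not always all listed) in √10 steps. Relative viability is the nuclei count in treated wells divided by that in vehicle wells, and each value is the median of duplicate plates.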

XMD8-85 + Olaparib = compound: CN1CCN(CC1)C2=CC(=C(C=C2)NC3=NC=C4C(=N3)N(C5=CC=CC=C5C(=O)N4C)C)OC [XMD8-85] + O=C(c1cc(Cc2n[nH]c(=O)c3ccccc23)ccc1F)N1CCN(C(=O)C2CC2)CC1 [Olaparib] (partner 8 µM)
How it was run: as §1

4EGI-1 + Pictilisib = compound: O=C(O)C(Cc1ccccc1[N+](=O)[O-])=NNc1nc(-c2ccc(Cl)c(Cl)c2)cs1 (mixture of isomers) [4EGI-1] + CS(=O)(=O)N1CCN(Cc2cc3nc(-c4cccc5[nH]ncc45)nc(N4CCOCC4)c3s2)CC1 [Pictilisib] (partner 1 µM)
How it was run: as §1

XMD8-85 + Luminespib = compound: CN1CCN(CC1)C2=CC(=C(C=C2)NC3=NC=C4C(=N3)N(C5=CC=CC=C5C(=O)N4C)C)OC [XMD8-85] + CCNC(=O)c1noc(-c2cc(C(C)C)c(O)cc2O)c1-c1ccc(CN2CCOCC2)cc1 [Luminespib] (partner 0.01 µM)
How it was run: as §1

| Cell Line | relative viability (4EGI-1 + AZD7762; first compound 0.5 µM) | relative viability (4EGI-1 + AZD7762; first compound 5 µM) | relative viability (4EGI-1 + AZD7762; first compound 15.81 µM) | relative viability (4EGI-1 + AZD7762; first compound 50 µM) | relative viability (XMD8-85 + Olaparib; first compound 0.08 µM) | relative viability (XMD8-85 + Olaparib; first compound 0.253 µM) | relative viability (XMD8-85 + Olaparib; first compound 0.8 µM) | relative viability (XMD8-85 + Olaparib; first compound 2.53 µM) | relative viability (XMD8-85 + Olaparib; first compound 8 µM) | relative viability (4EGI-1 + Pictilisib; first compound 0.5 µM) | relative viability (4EGI-1 + Pictilisib; first compound 1.581 µM) | relative viability (4EGI-1 + Pictilisib; first compound 5 µM) | relative viability (4EGI-1 + Pictilisib; first compound 15.81 µM) | relative viability (4EGI-1 + Pictilisib; first compound 50 µM) | relative viability (4EGI-1 + AZD7762; first compound 1.581 µM) | relative viability (XMD8-85 + Luminespib; first compound 0.08 µM) | relative viability (XMD8-85 + Luminespib; first compound 0.253 µM) | relative viability (XMD8-85 + Luminespib; first compound 0.8 µM) | relative viability (XMD8-85 + Luminespib; first compound 2.53 µM) | relative viability (XMD8-85 + Luminespib; first compound 8 µM) |
| --- | --- | --- | --- | --- | --- | --- | --- | --- | --- | --- | --- | --- | --- | --- | --- | --- | --- | --- | --- | --- |
| HCC-78 | 0.617 | 0.651 | 0.451 | 0.512 | 0.916 | 0.843 | 0.99 | 0.814 | 0.775 | 0.206 | 0.257 | 0.153 | 0.191 | 0.234 |  |  |  |  |  |  |
| HCC-366 | 0.33 | 0.293 | 0.174 | 0.0904 | 0.231 | 0.358 | 0.385 |  | 0.242 | 0.222 |  | 0.119 | 0.0976 | 0.0789 | 0.23 |  |  |  |  |  |
| HCC-827 | 0.255 | 0.211 |  | 0.139 | 0.67 | 0.714 | 0.684 | 0.739 | 0.701 | 1.03 | 0.993 | 0.958 | 0.298 | 0.66 | 0.217 | 0.834 | 0.486 | 0.756 | 0.797 | 0.614 |
| HOP-62 | 0.878 | 0.54 | 0.454 | 0.101 | 0.136 | 0.55 | 0.384 | 0.287 | 0.231 | 0.576 |  | 0.709 | 0.546 | 0.256 | 0.408 | 0.932 |  | 0.911 | 0.762 | 0.683 |
| IA-LM |  |  |  |  | 0.862 | 0.885 | 0.836 | 1.07 | 0.207 | 0.349 | 0.317 | 0.243 | 0.0957 | 0.08 |  |  |  |  |  |  |
| NCI-H520 |  |  |  |  | 0.343 | 0.366 | 0.293 | 0.305 | 0.236 | 0.332 | 0.315 | 0.378 | 0.367 | 0.162 |  | 0.235 | 0.257 | 0.192 | 0.202 | 0.201 |
| NCI-H522 | 0.947 | 0.985 | 0.874 | 0.783 | 0.699 | 0.632 | 0.615 | 0.537 | 0.568 |  |  |  |  |  | 0.71 | 1.15 | 1.31 | 0.92 | 1.06 | 0.97 |
| NCI-H661 |  |  |  |  | 0.798 | 0.795 | 0.768 | 0.854 | 0.525 | 0.368 | 0.344 | 0.391 | 0.336 | 0.231 |  | 1.06 | 0.952 | 1.01 | 1.04 | 0.806 |
| NCI-H1299 |  |  |  |  | 1.02 | 1 | 0.97 | 0.892 | 0.578 | 0.863 | 0.824 | 1.03 | 0.732 | 0.163 |  |  |  |  |  |  |
| NCI-H1563 |  |  |  |  |  |  |  |  |  | 0.637 | 0.662 | 0.622 | 0.662 | 0.521 |  | 0.608 | 0.488 | 0.505 | 0.536 | 0.567 |
| NCI-H1623 |  |  |  |  |  |  |  |  |  |  |  |  |  |  |  | 0.489 | 0.418 | 0.58 | 0.42 | 0.489 |
| NCI-H1648 | 0.662 | 0.707 | 0.602 | 0.517 | 0.857 | 1.14 | 0.919 | 0.482 | 0.861 |  |  |  |  |  | 0.674 |  |  |  |  |  |
| NCI-H1650 |  |  |  |  | 0.877 | 0.91 | 0.951 | 0.699 | 0.303 | 0.671 |  | 0.659 | 0.351 | 0.235 |  | 0.203 | 0.216 | 0.199 | 0.173 | 0.173 |
| NCI-H1703 | 0.121 | 0.147 | 0.12 | 0.119 | 0.308 |  | 0.427 | 0.42 | 0.312 | 0.266 | 0.253 | 0.238 | 0.222 | 0.255 | 0.131 |  |  |  |  |  |
| NCI-H2009 |  |  |  |  | 0.776 | 0.748 | 0.779 | 0.544 | 0.268 | 1.08 | 0.772 | 1.06 | 0.843 | 0.169 |  | 1.01 | 1.01 | 1.05 | 0.898 | 0.564 |
| NCI-H2023 |  |  |  |  | 0.42 | 0.452 | 0.508 | 0.487 | 0.285 | 0.275 |  | 0.207 | 0.177 | 0.0916 |  | 0.406 | 0.751 |  | 0.649 | 0.407 |
| NCI-H2228 |  |  |  |  | 0.629 | 0.338 | 0.649 | 0.655 | 0.331 | 0.444 | 0.403 | 0.464 | 0.335 | 0.298 |  | 0.154 | 0.209 | 0.114 | 0.188 | 0.185 |
| NCI-H2342 | 0.441 | 0.501 | 0.559 | 0.308 | 0.421 | 0.466 | 0.359 | 0.487 | 0.408 |  |  |  |  |  | 0.477 | 0.649 | 0.719 | 0.74 | 0.809 | 0.887 |
| SK-LU-1 |  |  |  |  | 0.482 | 0.509 |  | 0.417 | 0.391 | 0.628 | 0.648 | 0.618 | 0.541 | 0.416 |  | 0.193 | 0.207 | 0.207 | 0.191 | 0.165 |
| SK-MES-1 |  |  |  |  | 0.819 | 0.683 |  | 0.707 | 0.408 | 0.458 | 0.349 | 0.338 | 0.303 | 0.347 |  | 0.823 | 0.768 | 0.779 | 0.655 | 0.409 |
| SW 900 | 0.833 | 0.574 | 0.377 | 0.173 | 0.824 | 0.705 | 1.15 | 0.786 | 0.376 |  |  |  |  |  | 0.583 | 0.164 | 0.195 | 0.175 | 0.165 | 0.152 |
| SW 1573 |  |  |  |  | 0.496 | 0.48 | 0.546 |  | 0.341 | 0.549 | 0.562 | 0.461 | 0.445 | 0.47 |  | 0.276 | 0.189 | 0.183 | 0.172 | 0.175 |
| UMC-11 |  |  |  |  | 0.475 | 0.358 | 0.389 | 0.325 | 0.231 | 1.01 | 0.989 | 0.896 | 0.87 | 0.587 |  | 0.972 | 1.01 | 1.08 | 0.941 | 0.671 |
